# ChEMBL document CHEMBL3872204, “Synthesis and immunopotentiating activity of novel isoxazoline functionalized coumarins” (Eur J Med Chem, 2016)
# Activity calls are given as the source filed them. No cut-off for these calls is given here.
# Key:
# [1] = test system: Splenic lymphocyte; test: Immunopotentiating activity in splenic lymphocytes (unknown origin) assessed as effect on proliferation by measuring cell viability pretreated followed by incubation of lymphocytes with ConA for 48 hrs by MTT assay; assay type: functional, cell-based
# [2] = test system: Splenic lymphocyte; test: Immunopotentiating activity in splenic lymphocytes (unknown origin) assessed as effect on proliferation by measuring cell viability pretreated followed by incubation of lymphocytes with LPS for 48 hrs by MTT assay; assay type: functional, cell-based
# [3] = test system: Splenic lymphocyte; test: Immunopotentiating activity in splenic lymphocytes (unknown origin) assessed as effect on proliferation by measuring cell viability at 10 ug/ml pretreated followed by incubation of lymphocytes with LPS for 48 hrs by MTT assay; assay type: functional, cell-based
# [4] = test system: Splenic lymphocyte; test: Immunopotentiating activity in splenic lymphocytes (unknown origin) assessed as effect on proliferation by measuring cell viability at 0.1 to 1 ug/ml pretreated followed by incubation of lymphocytes with ConA for 48 hrs by MTT assay; assay type: functional, cell-based
# [5] = test system: Splenic lymphocyte; test: Immunopotentiating activity in splenic lymphocytes (unknown origin) assessed as effect on proliferation by measuring cell viability at 0.1 to 1 ug/ml pretreated followed by incubation of lymphocytes with LPS for 48 hrs by MTT assay; assay type: functional, cell-based
# [6] = test system: Splenic lymphocyte; test: Immunopotentiating activity in splenic lymphocytes (unknown origin) assessed as effect on proliferation by measuring cell viability at 10 ug/ml pretreated followed by incubation of lymphocytes with ConA for 48 hrs by MTT assay; assay type: functional, cell-based
# [7] = test system: Mus musculus; test: Immunopotentiating activity in sheep RBC-immunized BALB/c mouse assessed as increase in IL4 production in splenocytes administered orally for 14 days followed by incubation with ConA for 48 hrs by ELISA; assay type: functional, cell-based
# [8] = test system: Mus musculus; test: Immunopotentiating activity in sheep RBC-immunized BALB/c mouse assessed as B-cell activation by measuring IgG antibody titer in serum at 0.001 mg/kg, po for 14 days by hemagglutinination technique; assay type: functional, organism-based
# [9] = test system: Mus musculus; test: Immunopotentiating activity in sheep RBC-immunized BALB/c mouse assessed as increase in isolated splenic […] proliferation administered orally for 14 days followed by incubation of isolated splenocytes with ConA for 72 hrs by MTT assay; assay type: functional
# [10] = test system: Mus musculus; test: Immunopotentiating activity in sheep RBC-immunized BALB/c mouse assessed as CD8-positive T-cell content in spleen at 0.1 mg/kg, po for 14 days by flow cytometry (reference value: 1.47 +/- 0.04 10^7No_unit); assay type: functional
# [11] = test system: Mus musculus; test: Immunopotentiating activity in sheep RBC-immunized BALB/c mouse assessed as B-cell activation by measuring IgG antibody titer in serum at 0.1 mg/kg, po for 14 days by hemagglutinination technique; assay type: functional, organism-based
# [12] = test system: Mus musculus; test: Immunopotentiating activity in sheep RBC-immunized BALB/c mouse assessed as ratio of CD4-positive splenic T-cells to CD8-positive splenic T-cells at 0.01 mg/kg, po for 14 days by flow cytometry (RVB = 1.56 +/- 0.09); assay type: functional
# [13] = test system: Mus musculus; test: Immunopotentiating activity in sheep RBC-immunized BALB/c mouse assessed as CD8-positive T-cell content in spleen at 0.01 mg/kg, po for 14 days by flow cytometry (reference value: 1.47 +/- 0.04 10^7No_unit); assay type: functional
# [14] = test system: Mus musculus; test: Immunopotentiating activity in sheep RBC-immunized BALB/c mouse assessed as increase in delayed-type hypersensitivity response by measuring left hind foot pad thickness at 0.001 mg/kg, po qd administered 2 hrs post immunization for 7 days measured 24 to 48 hrs post SRBC challenge by spheromicrometer method; assay type: functional, organism-based
# [15] = test system: Mus musculus; test: Immunopotentiating activity in sheep RBC-immunized BALB/c mouse assessed as CD4-positive T-cell content in spleen at 0.01 mg/kg, po for 14 days by flow cytometry (reference value: 2.7 +/- 0.12 10^7No_unit); assay type: functional
# [16] = test system: Mus musculus; test: Immunopotentiating activity in sheep RBC-immunized BALB/c mouse assessed as CD8-positive T-cell content in spleen at 0.001 mg/kg, po for 14 days by flow cytometry (reference value: 1.47 +/- 0.04 10^7No_unit); assay type: functional
# [17] = test system: Mus musculus; test: Immunopotentiating activity in sheep RBC-immunized BALB/c mouse assessed as increase in macrophage production by measuring increase in NO production administered orally for 14 days followed by incubation with LPS for 48 hrs by Griess assay; assay type: functional
# [18] = test system: Mus musculus; test: Immunopotentiating activity in sheep RBC-immunized BALB/c mouse assessed as CD4-positive splenic T-cells at 0.1 mg/kg, po for 14 days by flow cytometry (reference value: 20.7 +/- 0.9%); assay type: functional
# [19] = species on record: Mus musculus; test: Cytotoxicity in BALB/c mouse splenocytes at 100 ug/ml measured after 72 hrs by MTT assay; assay type: toxicity; details: splenocyte
# [20] = test system: Mus musculus; test: Immunopotentiating activity in sheep RBC-immunized BALB/c mouse assessed as increase in isolated splenic T-cell proliferation administered orally for 14 days followed by incubation of isolated splenocytes with LPS for 72 hrs by MTT assay; assay type: functional
# [21] = test system: Mus musculus; test: Immunopotentiating activity in sheep RBC-immunized BALB/c mouse assessed as increase in isolated splenic T-cell proliferation administered orally for 14 days followed by incubation of isolated splenocytes with ConA for 72 hrs by MTT assay; assay type: functional
# [22] = test system: Mus musculus; test: Immunopotentiating activity in sheep RBC-immunized BALB/c mouse assessed as B-cell activation by measuring IgM antibody titer in serum at 0.1 mg/kg, po for 14 days measured on day 7 post dose by hemagglutinination technique; assay type: functional, organism-based
# [23] = test system: Mus musculus; test: Immunopotentiating activity in sheep RBC-immunized BALB/c mouse assessed as CD4-positive splenic T-cells at 0.01 mg/kg, po for 14 days by flow cytometry (reference value: 20.7 +/- 0.9%); assay type: functional
# [24] = test system: Mus musculus; test: Immunopotentiating activity in sheep RBC-immunized BALB/c mouse assessed as B-cell activation by measuring IgM antibody titer in serum at 0.01 mg/kg, po for 14 days measured on day 7 post dose by hemagglutinination technique; assay type: functional, organism-based
# [25] = test system: Mus musculus; test: Immunopotentiating activity in sheep RBC-immunized BALB/c mouse assessed as CD8-positive splenic T-cells at 0.1 mg/kg, po for 14 days by flow cytometry (reference value: 13.3 +/- 0.34%); assay type: functional
# [26] = test system: Mus musculus; test: Immunopotentiating activity in sheep RBC-immunized BALB/c mouse assessed as B-cell activation by measuring IgM antibody titer in serum at 0.001 mg/kg, po for 14 days measured on day 7 post dose by hemagglutinination technique; assay type: functional, organism-based
# [27] = test system: Mus musculus; test: Immunopotentiating activity in sheep RBC-immunized BALB/c mouse assessed as ratio of CD4-positive splenic T-cells to CD8-positive splenic T-cells at 0.001 mg/kg, po for 14 days by flow cytometry (RVB = 1.56 +/- 0.09); assay type: functional
# [28] = test system: Mus musculus; test: Immunopotentiating activity in sheep RBC-immunized BALB/c mouse assessed as increase in isolated splenic B-cell proliferation administered orally for 14 days followed by incubation of isolated splenocytes with LPS for 72 hrs by MTT assay; assay type: functional
# [29] = test system: Mus musculus; test: Immunopotentiating activity in sheep RBC-immunized BALB/c mouse assessed as increase in IL2 production in splenocytes administered orally for 14 days followed by incubation with ConA for 48 hrs by ELISA; assay type: functional, cell-based
# [30] = test system: Mus musculus; test: Immunopotentiating activity in sheep RBC-immunized BALB/c mouse assessed as CD4-positive T-cell content in spleen at 0.001 mg/kg, po for 14 days by flow cytometry (reference value: 2.7 +/- 0.12 10^7No_unit); assay type: functional
# [31] = test system: Mus musculus; test: Immunopotentiating activity in sheep RBC-immunized BALB/c mouse assessed as CD8-positive splenic T-cells at 0.001 mg/kg, po for 14 days by flow cytometry (reference value: 13.3 +/- 0.34%); assay type: functional
# [32] = test system: Mus musculus; test: Immunopotentiating activity in sheep RBC-immunized BALB/c mouse assessed as CD4-positive T-cell content in spleen at 0.1 mg/kg, po for 14 days by flow cytometry (reference value: 2.7 +/- 0.12 10^7No_unit); assay type: functional
# [33] = test system: Mus musculus; test: Immunopotentiating activity in sheep RBC-immunized BALB/c mouse assessed as CD8-positive splenic T-cells at 0.01 mg/kg, po for 14 days by flow cytometry (reference value: 13.3 +/- 0.34%); assay type: functional
# [34] = test system: Mus musculus; test: Immunopotentiating activity in sheep RBC-immunized BALB/c mouse assessed as ratio of CD4-positive splenic T-cells to CD8-positive splenic T-cells at 0.1 mg/kg, po for 14 days by flow cytometry (RVB = 1.56 +/- 0.09); assay type: functional
# [35] = test system: Mus musculus; test: Immunopotentiating activity in sheep RBC-immunized BALB/c mouse assessed as B-cell activation by measuring IgG antibody titer in serum at 0.01 mg/kg, po for 14 days by hemagglutinination technique; assay type: functional, organism-based
# [36] = test system: Mus musculus; test: Immunopotentiating activity in sheep RBC-immunized BALB/c mouse assessed as increase in interferon-gamma production in splenocytes administered orally for 14 days followed by incubation with ConA for 48 hrs by ELISA; assay type: functional, cell-based
# [37] = test system: Mus musculus; test: Immunopotentiating activity in sheep RBC-immunized BALB/c mouse assessed as CD4-positive splenic T-cells at 0.001 mg/kg, po for 14 days by flow cytometry (reference value: 20.7 +/- 0.9%); assay type: functional
smiles,measurement,setting,value
COc1cccc(C2=NOC(COc3ccc4ccc(=O)oc4c3)C2)c1 (stereo unspecified),Activity,[1],Dose-dependent effect
same,Activity,[2],Dose-dependent effect
O=c1ccc2ccc(OCC3CC(c4ccc(Cl)cc4)=NO3)cc2o1 (stereo unspecified),Activity,[3],Active
same,Activity,[4],Active
same,Activity,[5],Active
same,Activity,[6],Active
O=c1ccc2ccc(OCC3CC(c4ccc(F)cc4)=NO3)cc2o1 (stereo unspecified),Activity,[3],Active
same,Activity,[4],Active
same,Activity,[5],Active
same,Activity,[6],Active
COc1ccc(C2=NOC(COc3ccc4ccc(=O)oc4c3)C2)c(OC)c1 (stereo unspecified),Activity,[7],Dose-dependent effect
same,Activity,[1],Dose-dependent effect
same,Activity,[8],Active
same,Activity,[9],Dose-dependent effect
same,Activity,[10],1.41 ×10⁷ No_unit
same,Activity,[11],Active
same,Ratio,[12],1.67
same,Activity,[2],Dose-dependent effect
same,Activity,[13],1.29 ×10⁷ No_unit
same,Activity,[14],Active
same,Activity,[15],1.54 ×10⁷ No_unit
same,Activity,[16],1.19 ×10⁷ No_unit
same,Activity,[17],Dose-dependent effect
same,Activity,[18],35.3%
same,Activity,[19],Non-Toxic
same,Activity,[20],Dose-dependent effect
same,Activity,[21],Dose-dependent effect
same,Activity,[22],Active
same,Activity,[23],27.2%
same,Activity,[24],Active
same,Activity,[25],19.9%
same,Activity,[26],Active
same,Ratio,[27],1.32
same,Activity,[28],Dose-dependent effect
same,Activity,[29],Dose-dependent effect
same,Activity,[30],1.16 ×10⁷ No_unit
same,Activity,[31],15.4%
same,Activity,[32],1.67 ×10⁷ No_unit
same,Activity,[33],16.2%
same,Ratio,[34],1.77
same,Activity,[35],Active
same,Activity,[36],Dose-dependent effect
same,Activity,[37],20.3%
O=c1ccc2ccc(OCC3CC(c4ccc([N+](=O)[O-])cc4)=NO3)cc2o1 (stereo unspecified),Activity,[3],Active
same,Activity,[4],Active
same,Activity,[5],Active
same,Activity,[6],Active
O=c1ccc2ccc(OCC3CC(c4cccc5ccccc45)=NO3)cc2o1 (stereo unspecified),Activity,[3],Active
same,Activity,[4],Active
same,Activity,[5],Active
same,Activity,[6],Active
